Laboratory results from patent US5621133A (priority 1995, dated 1997).
Where a name gives a salt, the structure may show the parent alone. Read-outs that look alike come from different tables or passages of the source.

Legend:
dopamine D-2 receptor = dopamine D-2 receptor (Rattus norvegicus, UniProt P61169); assay: biochemical; format: binding; settings: rat caudate, [125I]-p-aminophenylethyl spiroperidol
Description: Homogenized rat caudate was the source of the D-2 receptors. […] The molar affinity of the compound for the receptor binding site was calculated by the same method used for the D-1 receptor assay, assuming a competitive interaction between the compound and the radiolabeled ligand.

dopamine D-1 receptor [1] = settings: for Intrinsic Activity (adenylate cyclase assay): dopamine = 100, goldfish retina or rat striatum; for EC50: read-out: EC50 (agonist activity in adenylate cyclase assay), tissue from goldfish retina or rat striatum
Description: In order to determine agonist activity, cell-free tissue homogenates are incubated in an ionic buffer solution containing ATP and the compound being evaluated. The tissue was obtained from either goldfish retina or rat striatum.

dopamine D-1 receptor [2] = molecular target: dopamine D-1 receptor (Rattus norvegicus, UniProt P18901); assay: biochemical; settings: D-1 Ki, rat caudate, [125I]SCH-23982
Chain of dopamine D-1 receptor (Rattus norvegicus, UniProt P18901) (P18901 whole entry): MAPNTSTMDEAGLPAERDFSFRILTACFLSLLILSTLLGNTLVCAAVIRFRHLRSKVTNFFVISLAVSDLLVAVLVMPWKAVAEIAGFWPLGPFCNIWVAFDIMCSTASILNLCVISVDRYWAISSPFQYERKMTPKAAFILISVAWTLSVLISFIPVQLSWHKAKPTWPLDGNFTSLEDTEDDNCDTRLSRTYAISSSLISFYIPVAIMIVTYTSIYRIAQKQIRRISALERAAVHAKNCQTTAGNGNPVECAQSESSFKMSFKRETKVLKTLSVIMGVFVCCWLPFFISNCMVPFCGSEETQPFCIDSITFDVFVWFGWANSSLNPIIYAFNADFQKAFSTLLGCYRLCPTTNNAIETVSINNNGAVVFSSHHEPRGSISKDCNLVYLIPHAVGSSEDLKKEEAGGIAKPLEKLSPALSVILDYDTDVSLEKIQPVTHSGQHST
Description: The compounds compete with the radiolabeled ligand for occupancy of the receptors and the molar potency of each compound was quantified.
The Ki values are inversely proportional to the affinity of the compound for the receptor.

Chain of dopamine D-2 receptor (P61169 whole entry): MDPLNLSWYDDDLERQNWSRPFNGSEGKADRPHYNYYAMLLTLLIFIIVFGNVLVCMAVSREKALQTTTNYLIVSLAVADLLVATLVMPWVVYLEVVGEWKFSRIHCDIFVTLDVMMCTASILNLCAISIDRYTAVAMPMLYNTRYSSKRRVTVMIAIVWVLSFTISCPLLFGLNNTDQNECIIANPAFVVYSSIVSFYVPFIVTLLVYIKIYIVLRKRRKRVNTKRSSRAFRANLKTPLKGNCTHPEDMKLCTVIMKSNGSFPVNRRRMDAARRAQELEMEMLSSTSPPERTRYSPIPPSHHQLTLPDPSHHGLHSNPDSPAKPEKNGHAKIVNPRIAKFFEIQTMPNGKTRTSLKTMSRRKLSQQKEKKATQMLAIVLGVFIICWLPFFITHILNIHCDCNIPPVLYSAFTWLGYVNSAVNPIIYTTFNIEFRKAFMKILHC

Row | SMILES | Ki (dopamine D-2 receptor; read-out: D-2 Ki) [µM] | Intrinsic Activity (adenylate cyclase assay) (dopamine D-1 receptor [1]) | EC50 (dopamine D-1 receptor [1]) [µM] | Ki (dopamine D-1 receptor [2]) [µM] | Ki (dopamine D-2 receptor; D-2 Ki) [µM]
1 | NC[C@@H]1O[C@H](C2CCCCC2)Cc2c1ccc1c2OC2(CCCCC2)O1 (relative stereo) [Example 63] | > 10 | 43 | 0.71 | 71 | –
2 | CCCCCCCCCC[C@@H]1Cc2c(ccc(O)c2O)[C@H](CN)O1 (relative stereo) [Example 65] | 16 | 91 | 0.32 | 14 | –
3 | CCCCCC[C@@H]1Cc2c(ccc(O)c2O)[C@H](CN)O1 (relative stereo) [Example 68] | 5.5 | 90 | 0.014 | 0.1 | –
4 | NC[C@@H]1O[C@H](C2CCCCC2)Cc2c1cc(Br)c(O)c2O (relative stereo) [Example 81] | 4.6 | 61 | 0.067 | 0.21 | –
5 | CCOC(=O)CC(=O)NC[C@@H]1Cc2c(ccc(O)c2O)[C@H](CN)O1 (relative stereo) [Example 92] | 5.4 | 69 | 0.6 | 1.5 | –
6 | NC[C@@H]1O[C@H](C23CC4CC(CC(C4)C2)C3)Cc2c(O)c(O)cc(Br)c21 (relative stereo) [Example 107, 1-Aminomethyl-8-bromo-adamantyl-5,6-dihydroxy-3,4-dihydro-1H-2-benzopyran Hydrobromide] | > 10 | – | – | 2.5 | –
7 | CC(C)(C)[C@@H]1Cc2c(ccc(O)c2O)[C@H](CN)C1 (relative stereo) [Example 195] | – | 73 | 0.4 | 0.25 | –
8 | COC(=O)CCC(=O)Oc1ccc2c(c1OC(=O)CCC(=O)OC)CC(c1ccccc1)C=C2CN (centres unmarked) [Example 19] | > 10 | – | – | 0.6 | –
9 | NCC1=CC(c2ccccc2)Cc2c1ccc(OC(=O)NCc1ccccc1)c2OC(=O)NCc1ccccc1 (centres unmarked) [Example 30] | – | – | – | > 10 | 32
10 | NC[C@@H]1O[C@H](C23CC4CC(CC(C4)C2)C3)Cc2c1cc(F)c(O)c2O [Example 103] | 2 | 88 | – | – | –
11 | NCC1=CC2(CCCCCC2)Cc2c1ccc(O)c2O [Example 188, 1'-Aminomethyl-5,6'-dihydroxyspiro[cycloheptane-1,3'-(3',4'-dihydro-2'-H-naphthalene)]hydrobromide] | 7 | – | – | 2 | –
12 | CCCC1(CCC)C=C(CN)c2ccc(O)c(O)c2C1 [Example 192] | > 10 | – | – | 3.2 | –
13 | CCCC1(CCC)Cc2c(ccc(O)c2O)C(CN)C1 (centres unmarked) [Example 198] | – | – | – | 3.7 | –
14 | Oc1ccc2c(c1O)CC(C1CCCCC1)C1=C2CNCC1 (centres unmarked) [Example 202] | 1.6 | 84 | – | – | –
15 | Oc1ccc2c(c1O)CC1(CCCCCCC1)C1=C2CNCC1 [Example 207] | 1.2 | 64 | – | – | –
16 | CCCC1(CCC)Cc2c(ccc(O)c2O)C2=C1CCNC2 [Example 208] | 3.1 | – | – | 0.53 | –
17 | CC(C)(C)CC1C=C(CN)c2ccc(O)c(O)c2C1 (centres unmarked) [Example 233] | > 10 | – | – | 3.2 | –
18 | Oc1ccc2c(c1O)CC(C13CC4CC(CC(C4)C1)C3)C1=C2CNCC1 (centres unmarked) [Example 238] | > 10 | – | – | 5.1 | –
19 | CC(C)(C)CC1Cc2c(ccc(O)c2O)C2=C1CCNC2 (centres unmarked) [Example 242] | 2 | – | – | 1.5 | –
20 | CN1CCC2=C(C1)c1ccc(O)c(O)c1CC2CC1CCCC1 (centres unmarked) [Example 245] | 0.18 | – | – | 0.35 | –
21 | CN1CCC2=C(C1)c1ccc(O)c(O)c1CC21CCCCCCCC1 [Example 248] | 0.88 | – | – | 0.58 | –

Further lines, with some results ahead:

Row | Ki (dopamine D-2 receptor; read-out: D-2 Ki) [µM] | Intrinsic Activity (adenylate cyclase assay) (dopamine D-1 receptor [1]) | EC50 (dopamine D-1 receptor [1]) [µM] | Ki (dopamine D-1 receptor [2]) [µM] | SMILES | Ki (dopamine D-2 receptor; D-2 Ki) [µM]
22 | 3.9 | 98 | 0.006 | 0.061 | NC[C@H]1C[C@@H](c2cccc(O)c2)Cc2c1ccc(O)c2O (relative stereo) [Example 42] | –
23 | 12 | 70 | 0.15 | 2.4 | NC[C@H]1C[C@@H](c2ccc3ccccc3c2)Cc2c1ccc(O)c2O (relative stereo) [Example 43] | –
24 | 0.65 | 67 | 0.023 | 0.25 | COc1ccc(OC[C@H]2Cc3c(ccc(O)c3O)[C@@H](CN)O2)cc1 (relative stereo) [Example 53] | –
25 | 1.3 | 46 | 0.43 | 2.2 | NC[C@H]1O[C@@H](COc2ccccc2-c2ccccc2)Cc2c1ccc(O)c2O (relative stereo) [Example 56] | –
26 | 0.73 | 56 | 0.03 | 1.1 | CC(C)(C)c1ccc(OC[C@H]2Cc3c(ccc(O)c3O)[C@@H](CN)O2)cc1 (relative stereo) [Example 57] | –
27 | 1.2 | 63 | 0.019 | 0.26 | NC[C@@H]1O[C@H](COc2ccc(Br)cc2)Cc2c1ccc(O)c2O (relative stereo) [Example 58] | –
28 | 2.2 | 93 | 0.037 | 0.53 | NC[C@@H]1O[C@H](Cc2ccccc2)Cc2c1ccc(O)c2O (relative stereo) [Example 60] | –
29 | 1.3 | 76 | 0.006 | 0.29 | NC[C@@H]1O[C@H](CCc2ccccc2)Cc2c1ccc(O)c2O (relative stereo) [Example 61] | –
30 | 3.7 | 111 | 0.17 | 0.21 | NC[C@@H]1O[C@H](c2ccccc2)Cc2c1cc(Br)c(O)c2O (relative stereo) [Example 62] | –
31 | 2.7 | 108 | 0.072 | 0.087 | NC[C@@H]1O[C@H](c2ccc(Br)cc2)Cc2c1ccc(O)c2O (relative stereo) [Example 69] | –
32 | 34 | 138 | 0.16 | 0.064 | C=CCC[C@@H]1Cc2c(ccc(O)c2O)[C@H](CN)O1 (relative stereo) [Example 73] | –
33 | 4.6 | 60 | 0.29 | 0.48 | NC[C@@H]1O[C@H](COCc2ccccc2)Cc2c1ccc(O)c2O (relative stereo) [Example 75] | –
34 | 0.81 | 147 | 0.015 | 0.049 | NC[C@@H]1O[C@H](CC2CCCC2)Cc2c1ccc(O)c2O (relative stereo) [Example 78] | –
35 | 0.92 | 151 | 0.007 | 0.73 | CCCC[C@@H]1Cc2c(ccc(O)c2O)[C@H](CN)O1 (relative stereo) [Example 79] | –
36 | 1.1 | 161 | 0.008 | 0.014 | NC[C@@H]1O[C@H](c2ccc(I)cc2)Cc2c1ccc(O)c2O (relative stereo) [Example 80] | –
37 | 0.82 | 107 | 0.007 | 0.011 | COc1cccc([C@@H]2Cc3c(ccc(O)c3O)[C@H](CN)O2)c1 (relative stereo) [Example 82] | –
38 | 0.7 | 54 | 0.05 | 11 | NC[C@@H]1O[C@H](CN2Cc3ccccc3C2=O)Cc2c1ccc(O)c2O (relative stereo) [Example 87] | –
39 | > 10 | 135 | 0.67 | 0.29 | NC[C@@H]1O[C@H](CCC2CCCCC2)Cc2c1ccc(O)c2O (relative stereo) [Example 91] | –
40 | 1.9 | 108 | 0.018 | 0.22 | NC[C@H]1O[C@@H](c2ccc(C(F)(F)F)cc2)Cc2c1ccc(O)c2O (relative stereo) [Example 98] | –
41 | 8.9 | 134 | 0.005 | 0.022 | NC[C@H]1O[C@@H](c2cccc(C(F)(F)F)c2)Cc2c1ccc(O)c2O (relative stereo) [Example 99] | –
42 | 0.9 | 60 | 0.06 | 0.42 | Oc1ccc2c(c1O)C[C@H](C1CCCCC1)O[C@@H]2CNC1CC1 (relative stereo) [Example 114] | –
43 | 3 | 68 | 2.2 | 12 | Oc1ccc2c(c1O)C[C@H](C1CCCCC1)O[C@@H]2CN1CCCC1 (relative stereo) [Example 115] | –
44 | 2.6 | – | – | 0.71 | CN(C)C[C@H]1O[C@@H](CC2CCCCC2)Cc2c1ccc(O)c2O (relative stereo) [Example 148A] | –
45 | > 10 | 113 | – | – | CC(C)(C)C1Cc2c(ccc(O)c2O)C(CN)O1 (centres unmarked) [Example 102] | –
46 | 0.47 | – | – | 1.9 | Oc1ccc2c(c1O)C[C@@H](c1ccccc1)O[C@H]2[C@@H]1CCCN1 [Example 124] | –
47 | 3.3 | 120 | – | – | Oc1ccc2c(c1O)CC(c1ccccc1)C1=C2CNCC1 (centres unmarked) [Example 200] | –
48 | 1.5 | 110 | – | – | Oc1ccc2c(c1O)C[C@@H](c1ccccc1)C1=C2CNCC1 [Example 201] | –
49 | 2 | 103 | – | – | Oc1ccc2c(c1O)CC(c1ccccc1)C1=C2CNCC1 (centres unmarked) [Example 239] | –
